Data published in patent publication US20210380602A1, “NOVEL PYRROLE AND PYRIDONE DERIVATIVES AND USES THEREOF” (VIRGINIA COMMONWEALTH UNIVERSITY, priority 2018, published 2021).
Where two headings read alike, the source gives them in different places.

Test system: HIV-1IIIB
Test: Anti-HIV cytoprotection assay in CEM-SS cells infected with HIV-1IIIB, XTT viability readout after 6 days
Assay type: cell-based
Description: (§1) In some aspect, CEM-SS cells were incubated at 37° C./5% CO2 with serially diluted compound and a known titer of HIV-1IIIB for 6 days. The CEM-SS cell line is a derivative of the human T lymphosarcoma cell line CEM that is permissive for vif-deficient HIV-1 replication. Following the incubation, the cells were stained with the tetrazolium dye XTT and read at 460/650 nm on a spectrophotometer to evaluate cellular viability. Efficacy and toxicity values were calculated using linear regression analysis. The efficacy of compound H-a was compared to that of dolutegravir. The EC50 of compound II-a was in a range of 0.070-0.02 nM (e.g. 0.070, 0.075, 0.080, 0.085, 0.090, 0.095, 0.010, 0.015 or 0.02 nM)
as §1, with “CEM-SS” for “In some aspect, CEM-SS”, “analysis.” for “analysis. The efficacy of compound H-a was compared to that of dolutegravir. The EC50 of compound II-a was in a range of 0.070-0.02 nM (e.g. 0.070, 0.075, 0.080, 0.085, 0.090, 0.095, 0.010, 0.015 or 0.02 nM)”

EC50 (Human immunodeficiency virus 1, CEM-SS, 144 h)	EC50	SMILES
0.12 nM		C[C@@H]1CCO[C@H]2Cn3cc(C(=O)NCc4ccc(F)cc4F)c(=O)c(O)c3C(=O)N12 [Compound I, Dolutegravir]
	0.095 nM	C[C@@H]1CCO[C@H]2Cn3cc(C(=O)C(=O)NCc4ccc(F)cc4F)c(O)c3C(=O)N12 [Compound II-a]
